# According to patent US9737517B2, “Pharmaceutical use of hexahydro-dibenzo[a,g]quinolizine compounds” (SHANGHAI INSTITUTE OF MATERIA MEDICA, CHINESE ACADEMY OF …, priority 2013, dated 2017):
# “And” between values parts separate entries of the source, which are not always exact repeats. Equal entries are not always repeated. Where two headings read alike, the source gives them in different places.
# Columns and labels:
# [1] = In vitro metabolism in rat liver microsomes; type: in vitro ADME
# Procedure: (§1) The total volume of each incubation system was 200 μL, and the medium was 100 mM phosphate buffer solution (PBS, pH7.4) comprising a final concentration of 3 μM DC037009 and 2 mM NADPH. A37° C. water bath was used for incubation. After 3 minutes of pre-incubation, various liver microsomes protein were added into the buffer-substrate-cofactors mixture to start reaction. The concentration of liver microsomal protein of various species was 1.0 mg/mL. After reacting 60 min, the reaction was terminated with isovolumetric ice-cold acetonitrile. The total volume of blank was 200 μL, and the medium was 100 mM phosphate buffer solution (PBS, pH 7.4), comprising a final concentration of 3 μM DC037009 and heat inactivated microsomal proteins. All incubation samples were double.
# (§2) A 150 μL sample from each of double incubation samples was mixed. A 300 μL of acetonitrile was added, mixed by vortexing for 1 min, and centrifuged 5 min (11000 rpm). The supernatant was placed in a 10 mL tube, and dried in 40° C. with nitrogen stream. The residue was dissolved with 100 μL methanol/water (1:9, v/v). A 10 μL sample was taken for UPLC/Q-TOF MS analysis.
# [2] = Stability of the compound on heating; type: physicochemical; settings: heated at 80° C. for 24 hours
# Procedure: Compound DC037009 was heated at 80° C. for 24 hours, and the compound purity only varied 0.5%.
# SD rats = test: Repetitive dose toxicity experiment on SD rats for 14 days; type: in vivo; settings: oral, 100 and 200 mg/kg for 14 days
# [3] = Pharmacokinetics study in rats (gavage and intravenous); type: in vivo, SD rats; settings: rat
# Procedure: (§3) Gavage administration to rats. 3 healthy SD rats (male, weighed 200-220 g) were fasted for 12 hours before the administration but were allowed to drink water. Compound DC037009 was formulated with 10% DMSO/10% Tween 80/80% saline and was administered by 20 mg/kg dose and the dosing volume was 10 mL/kg.
# as §3, with “Intravenous administration” for “Gavage administration”, “administered via the rat tail vein injection” for “administered”, “by 10” for “by 20”, “was 5” for “was 10”
# Intravenous administration: 5 min, 0.25, 0.5, 1.0, 2.0, 3.0, 5.0, 7.0, 9.0 and 24 hrs after administration.
# At the above time points, 0.3 mL blood obtained from post-eye venous plexus of rat was set into a heparinized tube, which was 11000 rpm centrifuged for 5 min, and the plasma was separated and frozen at −20° C. in a refrigerator.
# α1D-AR = target: T1, α1D-AR (Homo sapiens, UniProt P25100); test: Calcium mobilization (Fluo-4) antagonism of phenylephrine in HEK293 cells expressing α1D-AR/Gα16; type: cell-based; settings: phenylephrine 30 nM
# T1 construct: expressed in transfected cells; host or cells: HEK293
# T1 sequence (P25100 1-572): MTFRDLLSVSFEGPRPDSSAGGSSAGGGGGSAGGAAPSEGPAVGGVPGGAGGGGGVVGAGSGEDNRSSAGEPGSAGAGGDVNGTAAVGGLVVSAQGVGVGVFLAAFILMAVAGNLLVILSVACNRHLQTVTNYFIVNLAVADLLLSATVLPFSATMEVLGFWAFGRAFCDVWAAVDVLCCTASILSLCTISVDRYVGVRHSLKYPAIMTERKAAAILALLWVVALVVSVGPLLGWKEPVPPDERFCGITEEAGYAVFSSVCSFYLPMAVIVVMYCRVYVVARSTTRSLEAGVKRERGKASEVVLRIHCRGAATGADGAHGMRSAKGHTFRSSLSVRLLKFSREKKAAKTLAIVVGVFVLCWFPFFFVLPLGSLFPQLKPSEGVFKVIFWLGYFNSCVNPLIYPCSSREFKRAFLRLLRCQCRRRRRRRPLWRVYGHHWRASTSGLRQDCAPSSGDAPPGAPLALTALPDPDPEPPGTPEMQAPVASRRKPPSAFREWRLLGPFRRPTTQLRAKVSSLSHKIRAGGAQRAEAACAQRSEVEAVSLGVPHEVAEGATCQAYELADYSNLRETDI
# Procedure: HEK293 cells stably expressing α1A-AR/Gα16, α1B-AR/Gα16, α1D-AR/Gα16 were seeded in a 96-well plate, and cultured for 24 hours. Then the medium was removed and 40 μL Hank's balanced salt solution (HBSS: containing 5.4 mM KCl, 0.3 mM Na2HPO4, 0.4 mM KH2PO4, 4.2 mM NaHCO3, 1.3 mM CaCl2, 0.5 mM MgCl2, 0.6 mM MgSO4, 137 mM NaCl, 5.6 mM D-glucose, and 250 μM sulfinpyrazone, pH 7.4) containing 2 μM Fluo-4 AM was added into each well, and incubated at 37° C. for 45 min. Dye was removed and 50 μL of HBSS containing either test compound or 1% DMSO (negative control) was added. After incubation at room temperature for 10 min, Flex Station 3 microplate reader was used to read the value. At specified time points, 25 μL of agonist (phenylephrine, final concentration 30 nM) was dispensed into the well automatically using the reader and fluorescence intensity change of dye caused by intracellular calcium concentration change was detected at an excitation wavelength of 485 nm and an emission wavelength of 525 nm.
# After incubation with different drugs, the reaction rate of cells to 1-AR agonist phenylephrine was calculated as follows: Reaction rate %=(D−B)/(S−B)*100%;
# The reaction rate of the same drug at different doses was tested using GraphPad Prism software by non-linear regression analysis, and the dose-response curve was obtained and IC50 values was measured. Data were obtained from three separate experiments, and each experiment included three duplicate wells.
# [4] = In vitro metabolism in human liver microsomes; type: in vitro ADME
# Procedure: as §1, §2
# [5] = 3 μM DC037009, 1.0 mg/mL microsomal protein, NADPH, 60 min, UPLC/Q-TOF MS
# [6] = male, SD, plasma, po, 20 mg/kg, gavage 20 mg/kg, individual animals 1-3
# [7] = male, SD, plasma, po, 20 mg/kg, gavage 20 mg/kg, mean of 3
# [8] = gavage 20 mg/kg, individual animals 1-3, 20 mg/kg
smiles,measurement,setting,value
"COc1cc2c(cc1OC)CN1CCc3cc4c(cc3[C@@H]1C2)OCO4 [DC037009, S-(−)-2,3-methylenedioxy-10,11-dimethoxy-5,8,13,13a-tetrahydro-6H-dibenzo[a,g]quinolizine]","Mass area, rat",[1]; [5],115.4
same,kinds of metabolites detected in rat liver microsome,[1]; 60 min incubation,eight
same,variation of compound purity,[2],0.5%
same,changes of blood and coagulation indicators and serum biochemical indicators,SD rats,did not show any toxicological significance
same,death,SD rats,no death rat was found
same,gross anatomy,SD rats,no pathological changes related to administrated drug
same,bioavailability,"[3]; male, SD, plasma, oral, gavage 20 mg/kg versus intravenous 10 mg/kg",34.2%
same,clearance,"[3]; male, SD, plasma, intravenous injection 10 mg/kg, read-out: plasma clearance rate CL (converted)",39.7 mL/min/kg
same,Vd,"[3]; male, SD, plasma, intravenous injection 10 mg/kg, read-out: volume distribution stead state Vss",3.49 ± 0.24 L/kg
same,half-life,"[3]; male, SD, plasma, iv, 10 mg/kg, intravenous injection 10 mg/kg",5.44 ± 0.85 h
same,AUC0-t,"[3]; male, SD, plasma, iv, 10 mg/kg, intravenous injection 10 mg/kg, read-out: AUC0-t",4200 ± 141 ng·h/mL
same,AUC(0-inf),[3]; [6],2630 ng·h/mL
same,half-life,[3]; [6],4.2 h
same,AUC0-t,"[3]; male, SD, plasma, po, 20 mg/kg, gavage 20 mg/kg, individual animals 1-3, read-out: AUC0-t",2570 ng·h/mL
same,Cmax,"[3]; male, SD, plasma, po, 20 mg/kg, gavage 20 mg/kg, individual animals 1-3, read-out: Cmax",289 ng/mL
same,MRT,"[3]; male, SD, plasma, po, 20 mg/kg, gavage 20 mg/kg, individual animals 1-3, read-out: MRT",6.45 h
same,Tmax,"[3]; male, SD, plasma, po, 20 mg/kg, gavage 20 mg/kg, individual animals 1-3, read-out: Tmax",0.5 h
same,AUC(0-inf),[3]; [7],2890 ng·h/mL
same,half-life,[3]; [7],3.26 ± 0.82 h
same,AUC0-t,"[3]; male, SD, plasma, po, 20 mg/kg, gavage 20 mg/kg, mean of 3, read-out: AUC0-t",2870 ± 798 ng·h/mL
same,Cmax,"[3]; male, SD, plasma, po, 20 mg/kg, gavage 20 mg/kg, mean of 3, read-out: Cmax",453 ± 147 ng/mL
same,MRT,"[3]; male, SD, plasma, po, 20 mg/kg, gavage 20 mg/kg, mean of 3, read-out: MRT",5.04 h
same,Tmax,"[3]; male, SD, plasma, po, 20 mg/kg, gavage 20 mg/kg, mean of 3, read-out: Tmax",0.67 ± 0.29 h
same,AUC0-t,[3]; [8],2260 ng·h/mL and 3771 ng·h/mL
same,AUC0-∞,[3]; [8],2265 ng·h/mL and 3779 ng·h/mL
same,Cmax,[3]; [8],494 ng/mL and 575 ng/mL
same,MRT,[3]; [8],4.00 h and 4.67 h
same,Tmax,[3]; [8],1.00 h
same,t1/2,[3]; [8],2.89 h and 2.70 h
same,AUC0-t,"[3]; gavage 20 mg/kg, mean of 3, 20 mg/kg",2260 ng·h/mL
same,IC50,α1D-AR,260 nM
same,"Mass area, Human",[4]; [5],416.8
same,kinds of metabolites detected in human liver microsome,[4]; 60 min incubation,Four
same,metabolic stability in human liver microsome,[4]; 60 min incubation,relatively higher
COc1cc2c(cc1OCc1ccccc1)C[C@H]1c3cc4c(cc3CCN1C2)OCO4 [DC037016],IC50,α1D-AR,191 nM
